Earlier results in patent US10864334B2, “Nasal delivery” (OptiNose AS, priority 2006, dated 2020).
Read-outs that look alike come from different tables or passages of the source.

How the values were obtained:
[1] = intranasal; aqueous spray versus nasal drops; systemic bio-availability
[2] = in vivo

| bio-availability of the nasal spray formulation relative to the nasal drop formulation [1] | bio-availability of the nasal spray formulation relative to the nasal drop formulation [2] | Structure (SMILES) |
| --- | --- | --- |
| about eight times higher | – | CCC(=O)O[C@]1(C(=O)SCF)[C@H](C)C[C@H]2[C@@H]3C[C@H](F)C4=CC(=O)C=C[C@]4(C)[C@@]3(F)[C@@H](O)C[C@@]21C [fluticasone propionate] |
| – | two to three times higher | NC(=O)CC[C@@H]1NC(=O)[C@H](Cc2ccccc2)NC(=O)[C@H](Cc2ccc(O)cc2)NC(=O)CCSSC[C@@H](C(=O)N2CCC[C@H]2C(=O)N[C@H](CCCN=C(N)N)C(=O)NCC(N)=O)NC(=O)[C@H](CC(N)=O)NC1=O [desmopressin] |
